In PubChem BioAssay (NCI) one finds TGI and GI50 data, which are given here for 27 molecules.

Experiment in all cases: growth of human tumour cells (NCI), 48 h
Assay [1] deals with LOX IMVI melanoma.
Assay [2] concerns OVCAR-4 ovarian.
In assay [3] the test system is PC-3 prostate.
Assay [4] has as its system EKVX NSCLC.
Assay [5] relates to NCI-H23 lung.
In assay [6] the test system is HT29 colon.
The subject of assay [7] is HL-60(TB) leukemia.
Assay [8] relates to RPMI-8226 leukemia.
Assay [9] deals with UACC-62 melanoma.
The subject of assay [10] is CCRF-CEM leukemia.

“And” between values parts separate entries of the source, which are not always exact repeats. Equal values may be shown once.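 Values below derive from 48-hour exposures of cells grown in 96-well plates, with endpoints linearly interpolated between the two concentrations bracketing the appropriate inhibition level. Abbreviation: GI50, concentration required for 50% inhibition of growth. TGI marks complete inhibition of growth.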

Turning to `CC(C)(CO)Nc1c(O)c2c(c(O)c1Cl)C(=O)C=CC2=O`, the TGI in assay [1] was 1.19 µM; in assay [2] it was 2.92 µM; in assay [3], 3.41 µM; in [4] it was 3.82 µM; in assay [5], 3.37 µM; in assay [6] it was 3.4 µM. Also, the TGI in [7] worked out at 0.561 µM; in assay [8] it was 4.82 µM; in [9], 2.72 µM; in assay [10], 1.26 µM.

Regarding `C/C(=N/NC(=O)c1ccccc1Nc1ccccc1C(=O)N/N=C(\C)c1ccc(C)cc1)c1ccc(C)cc1`, the TGI in assay [2], in [3], in [4], in assay [5], in assay [6] and in assay [7] was greater than 100 µM throughout. In addition, the TGI in assay [8], in assay [9] and in assay [10] was greater than 100 µM throughout.

In the case of `CC1=NNC(N)=N/C1=C\C(Sc1ccc(Cl)cc1)c1ccc(Cl)cc1Cl` (stereo not given), the TGI in assay [1] was greater than 49.4 µM; in assay [2], 44.6 µM; in [3] it was 26.4 µM; in assay [4] it was 32.7 µM; in assay [5], 29.4 µM; in assay [6], 14.2 µM. Also, the TGI was 22.2 µM in assay [7], 61.2 µM in [8], greater than 51.9 µM in [9] and 7.62 µM in [10].

As for `Nc1nc(Cl)cc(NCC2CC(O)(CO)C2)n1` (stereo not given), the TGI in assay [1], in assay [2], in assay [3], in assay [4], in [5] and in assay [6] was greater than 100 µM in each case. For the same molecule, the TGI in [7], in [8], in assay [9] and in assay [10] was greater than 100 µM each time.

Turning to `Clc1ccc(C2=NNC(c3cccc(Cl)c3)C2)cc1` (stereo not given), the TGI is 33.7 µM in [1]; greater than 100 µM in assay [2]; 97.4 µM in assay [3]; greater than 100 µM in [4]; greater than 100 µM in [5]; greater than 100 µM in assay [6]. In addition, the TGI in assay [7] was greater than 100 µM; in assay [8] it was 41 µM; in assay [9], greater than 100 µM; in [10], 96.8 µM.

As to `C[S+](C)C1(c2ccccc2)C(=O)c2ccccc2C1=O`, the TGI in assay [1] was greater than 72.7 µM; in assay [2], greater than 100 µM; in assay [3], greater than 100 µM; in assay [4] it was 76.9 µM; in assay [5], greater than 100 µM; in [6], greater than 100 µM. For the same molecule, the TGI in [7] is greater than 31.6 µM; in assay [8], greater than 100 µM; in [9], greater than 62.7 µM; in assay [10] it was greater than 85.8 µM.

Regarding `CN1CCN(C2CC(=O)c3c(Cl)sc(Cl)c32)CC1` (stereo not given), the TGI in assay [1] was 3.83 µM; in assay [2], greater than 42.9 µM; in assay [3] it was greater than 100 µM; in assay [4] it was greater than 55.5 µM; in assay [5], 30.3 µM; in assay [6], 33.7 µM. The TGI in assay [7] turned out to be 46 µM; in assay [8] it was 15.5 µM; in assay [9], 34.1 µM; in [10] it was 14.6 µM.

Take `O=C(O)CCC(NC(=O)/C(=C/c1ccccc1)NC(=O)c1ccccc1)C(=O)O` (stereo not given): the TGI in assay [1], in assay [2], in assay [3], in assay [4], in [5] and in assay [6] was greater than 100 µM each time. Also, the TGI in [7], in [8], in [9] and in assay [10] was greater than 100 µM each time.

On to `CCOC(=O)CCN1C(=O)c2c(NC(=O)C(=O)O)cccc2S1(=O)=O`, for which the TGI in assay [1], in assay [2], in assay [3], in assay [4], in assay [5] and in assay [6] was greater than 100 µM in each case. The TGI in [7], in assay [8], in assay [9] and in [10] was greater than 100 µM throughout.

As for `C[C@@H]1CC(=O)[C@@]2(C)[C@](O)(CCC3O[C@]32C)[C@@]12CC(c1ccoc1)OC2=O` (stereo not given in full), the TGI in [1], in [2], in assay [3], in assay [4], in assay [5] and in assay [6] was greater than 100 µM each time. In addition, the TGI in assay [7] was 62.8 µM; in assay [8], greater than 100 µM; in assay [9], greater than 100 µM; in assay [10], 59.8 µM.

As for `CCOC(=O)N1c2c(c3ccccc3n2C(=O)OCC)C(=O)C(OC)N1C(=O)OCC` (stereo not given), the TGI in assay [1] was 38.8 µM; in [2], greater than 100 µM; in [3], 80.5 µM; in assay [4], greater than 100 µM; in [5], greater than 100 µM; in [6] it was 85.5 µM. Further, the TGI in assay [7] is 49.8 µM; in assay [8], greater than 100 µM; in assay [9], greater than 100 µM; in assay [10], greater than 100 µM.

`CSC(=N/N=C(\C)c1ccc(S(=O)(=O)N(C)c2ccccc2)cc1)SC`: the TGI in assay [1], in assay [2], in assay [3], in [4], in assay [5] and in [6] was greater than 100 µM each time. Moreover, the TGI is greater than 100 µM in [7], greater than 100 µM in assay [8], greater than 100 µM in assay [9] and greater than 95.2 µM in assay [10].

Consider `Cc1cc(=O)oc2c(CN(CCCl)CCCl)c(O)ccc12`, for which the TGI in [1], in assay [2], in assay [3], in [4], in [5] and in assay [6] was greater than 100 µM each time. Further, the TGI in assay [7] was determined as 27.4 µM; in [8] it was 63.6 µM; in [9], 71.2 µM; in [10], 31.7 µM.

Regarding `Cc1cccc(-c2cc(=O)c3cc(C)cnc3[nH]2)c1`, the TGI in [1] was greater than 100 µM; in [2] it was greater than 100 µM; in assay [3], greater than 56.9 µM; in assay [4], greater than 100 µM; in assay [5] it was greater than 35.9 µM; in assay [7], 0.355 µM. Further, the TGI in assay [8] is 30.1 µM; in assay [9], greater than 100 µM; in assay [10], 36.9 µM.

With `Cc1nc2cccc(F)c2c(=O)n1-c1nnc(C2CC2)s1`, the TGI in assay [1], in assay [2], in assay [3], in assay [4], in [5] and in assay [6] was greater than 10 µM throughout. Moreover, the TGI in assay [7], in assay [8], in [9] and in assay [10] was greater than 10 µM each time.

Consider `N#Cc1nc(-c2ccccn2)c(-c2ccccn2)nc1C#N`, for which the TGI in assay [1] was greater than 27.5 µM; in assay [2], 12.3 µM; in [3], 19.7 µM; in assay [4], 15.7 µM; in assay [5] it was 16.7 µM; in [6], 14.4 µM. Also, the TGI was greater than 29.2 µM in assay [7], greater than 100 µM in assay [8], 5.1 µM in assay [9] and greater than 38.4 µM in assay [10].

On to `S=C1NNC(=S)NN1`, for which the TGI is 0.328 µM in assay [1]; greater than 1 µM in [2]; greater than 1 µM in assay [3]; greater than 1 µM in assay [4]; greater than 1 µM in assay [5]; greater than 1 µM in assay [6]. Moreover, the TGI in assay [7], in assay [8], in assay [9] and in assay [10] was greater than 1 µM in each case.

With `Cc1cnc2cc(Cl)ccc2c1SCC(=O)O`, the TGI in assay [1], in assay [2], in [3], in assay [4], in [5] and in assay [6] was greater than 100 µM throughout. For the same molecule, the TGI in [7], in assay [8], in [9] and in [10] was greater than 100 µM throughout.

Turning to `Cc1cc(S(=O)(=O)Nc2n[nH]c(N)n2)c(S)cc1Cl`, the TGI in [1], in [2], in assay [3], in assay [4], in assay [5] and in assay [6] was greater than 10 µM each time. Further, the TGI in assay [7], in assay [8], in [9] and in assay [10] was greater than 10 µM throughout.

Take `CCOC(=O)c1sc2[n+](c1C)C(=O)/C(=C/c1ccccc1Cl)S2`: the TGI in assay [1] was 19.1 µM; in [2] it was greater than 100 µM; in assay [3], greater than 85.6 µM; in assay [4] it was greater than 100 µM; in assay [5] it was 27.7 µM; in assay [6], 28.9 µM. In addition, the TGI in assay [7] was greater than 62.9 µM; in assay [8], 15.7 µM; in assay [9] it was 19.3 µM; in assay [10] it was greater than 72.8 µM.

For the molecule `CC(=O)N1C(=O)/C(=C\C(=O)c2ccc(Cl)cc2)c2ccccc21`, the TGI in assay [1] was found to be 5.9 µM; in assay [2] it was 35.9 µM; in [3], 19.6 µM; in [4], 36.2 µM; in [5] it was 31.7 µM; in assay [6], 20.7 µM. Moreover, the TGI was found to be 5.24 µM in assay [7], 97.1 µM in [8], 28.6 µM in [9] and 7.58 µM in assay [10].

Take `O=C1/C(=C/Cc2ccco2)N=C(c2ccccc2)N1c1nc2c(Cl)cc(Cl)cc2s1`: the TGI was greater than 100 µM in assay [1]; 75.6 µM in assay [2]; 74.8 µM in assay [3]; 76.2 µM in assay [4]; 98.2 µM in assay [6]; 49.9 µM in assay [7]. Further, the TGI in [8] is 35.4 µM; in [9], greater than 100 µM; in [10] it was 39.8 µM.

For `c1ccc2c(c1)[C@@H]1O[C@@H]1[C@@]13O[C@@]21[C@H]1O[C@H]1c1ccccc13`, the TGI in assay [1] is 27.7 µM; in assay [2], 26.8 µM; in assay [3], 30 µM; in [4], 31.9 µM; in [5], 40.1 µM; in [6], 51.9 µM. Further, the TGI in [7] came out at 41 µM; in assay [8], 33.7 µM; in [9] it was 28.1 µM; in [10], 24.3 µM.

As for `CC(=O)OC1COC(n2c(N)c(C#N)c(-c3ccccc3)c(C#N)c2=S)C(OC(C)=O)C1OC(C)=O` (stereo not given), the TGI in assay [1] was 79 µM and 76.7 µM; in assay [2] it was greater than 100 µM; in assay [3], greater than 100 µM; in [4], greater than 100 µM; in assay [5] it was greater than 100 µM; in [6] it was greater than 100 µM. The TGI is 44.8 µM in [7]; 58.7 µM and 68.3 µM in assay [8]; greater than 100 µM in [9]; 67.7 µM and > 100 µM in [10]. Moreover, the GI50 in assay [5] was 33.1 µM and 73.2 µM.

Take `CC1=CCC(=O)[C@]2(C)C(CC(=O)O)[C@]3(C)C4=C(C)C(c5ccoc5)C[C@@H]4O[C@@H]3[C@H](O)[C@@H]12` (stereo not given in full): the TGI in [1], in assay [2], in assay [3], in [4], in assay [5] and in assay [7] was greater than 100 µM throughout. The TGI in assay [8], in assay [9] and in assay [10] was greater than 100 µM each time.

As for `CO/C=C(/C(=O)OC)c1ccccc1[C@H]1C[C@@H]1c1ccccc1`, the TGI in [2] was 62.3 µM; in [3], greater than 100 µM; in assay [4], 54.6 µM; in [5], greater than 100 µM; in [6], 56.5 µM; in assay [7], 63.3 µM. Also, the TGI in assay [8] is 38.1 µM; in assay [9], 37.2 µM; in [10], greater than 100 µM.

For the molecule `C(=N\Nc1nnc(-c2nnc(N/N=C/c3ccccc3)o2)o1)/c1ccccc1`, the TGI in [2], in assay [3], in assay [4], in [5], in assay [6] and in assay [7] was greater than 10 µM in each case. For the same molecule, the TGI in [8], in assay [9] and in [10] was greater than 10 µM in each case.
